Values quoted from earlier work in paper PMC2747598 (Journal of the American Chemical Society, 2009).

Tested on: HeLa cells
Conditions: unconjugated complexes

With `[Ru+2].c1ccc(-c2ccccn2)nc1.c1ccc(-c2ccccn2)nc1.c1ccc2nc3c4cccnc4c4ncccc4c3nc2c1` [Ru(bpy)2dppz^2+] as the compound, how does the “Mode of cellular uptake” value read?
The value was “enter by passive diffusion and do not exhibit punctate staining”.

For Ru(phen)2dppz^2+, which “Mode of cellular uptake” value is on record?
The value was “enter by passive diffusion and do not exhibit punctate staining”.

For Ru(phen)(bpy′)(dppz)^2+, which “Mode of cellular uptake” value is on record?
The value was “enter by passive diffusion and do not exhibit punctate staining”.
